# Experimental data as given in ChEMBL document CHEMBL1629594, “Identification of a novel trimethoprim resistance gene, dfrK, in a methicillin-resistant Staphylococcus aureus ST398 strain and its physical linkage to the tetracycline resistance gene tet(L)” (2009).
# Test system: Staphylococcus aureus
# Assay: Antibacterial activity against methicillin-resistant Staphylococcus aureus ST398
# Format: functional
row,SMILES,MIC [mg/L]
1,CC1(C)S[C@@H]2[C@H](NC(=O)[C@H](N)c3ccccc3)C(=O)N2[C@H]1C(=O)O [AMPICILLIN],8
2,Cc1onc(-c2ccccc2)c1C(=O)N[C@@H]1C(=O)N2[C@@H]1SC(C)(C)[C@@H]2C(=O)O [OXACILLIN],8
3,CC1(C)S[C@@H]2[C@H](NC(=O)Cc3ccccc3)C(=O)N2[C@H]1C(=O)O [PENICILLIN G],8
4,CN(C)[C@@H]1C(O)=C(C(N)=O)C(=O)[C@@]2(O)C(O)=C3C(=O)c4c(O)cccc4[C@@](C)(O)[C@H]3C[C@@H]12 [TETRACYCLINE],64
5,COc1cc(Cc2cnc(N)nc2N)cc(OC)c1OC [TRIMETHOPRIM],> 256

# Test system: Escherichia coli
# Assay: Antibacterial activity against Escherichia coli JM109 expressing Bgl2
row,SMILES,MIC [mg/L]
1,COc1cc(Cc2cnc(N)nc2N)cc(OC)c1OC [TRIMETHOPRIM],≥ 512
